Assay results taken from patent US20260191835A1, “COMBINATIONS COMPRISING A MENIN-MLL INHIBITOR AND AT LEAST ONE OTHER THERAPEUTIC AGENT” (JANSSEN PHARMACEUTICA NV, priority 2022, published 2026).

System: MV4-11 cells
Test: In vitro proliferation (Cell Titer Glo, 6 days) of Compound 51 in combination with gilteritinib, midostaurin or decitabine, MV4-11
Type: cell-based
Set-up: key to Synergy/antagonism call (maxR test), MV4-11 Cell Proliferation: synergy is indicated by “**”; antagonism is indicated by “*”; no asterisk: absence of any asterisk indicates an additive effect
Experimental: 3) In Vitro Proliferation—Menin-MLL Inhibitor in Combination with FLT3 Inhibitor (Gilteritinib or Midostaurin), DNA Intercalating Agent (Idarubicin) or Hypomethylating Agent (Decitabine)
The effect of Compound 51 in combination with gilteritinib, midostaurin, idarubicin or decitabine was determined in proliferation assays.
AML cell lines MOLM-13, OCI-AML3 and MV4-11 were purchased from DSMZ. MOLM-13 were grown in RPMI medium supplemented with 10% Fetal Bovine Serum (FBS) and 1% penicillin/streptomycin. MV4-11 cells were grown in IMDM medium supplemented with 10% FBS and 1% penicillin/streptomycin. OCI-AML3 cells were cultured in 80-90% alpha-MEM (with or without ribo- and deoxyribonucleosides)+10-20% FBS. All cell lines were cultured at 37° C. in 5% CO2 atmosphere.
AML cell lines (10-20×10^3 cells/well) were seeded in 96-well plates and grown for 6 days in serum (10%)-containing medium in the presence or absence of inhibitors at the indicated concentrations. Proliferation was analyzed by means of a Cell Titer Glo assay using the […] (Promega, Madison, WI, USA), according to the manufacturer's instructions. Data are mean with standard deviation from two to four independent experiments in technical triplicates.
R-based Biochemically Intuitive Generalized Loewe (BIGL) model implemented with a highest single agent (HSA) null model. Specifically, the BIGL methodology was applied to calculate drug-drug interactions (Van der Borght, K., Tourny, A., Bagdziunas, R. et al. BIGL: Biochemically Intuitive Generalized Loewe null model for prediction of the expected combined effect compatible with partial agonism and antagonism. Sci Rep 7, 17935 (2017); Thas, O., Tourny, A., Verbist, B., Hawinkel, S., Nazarov, M., Mutambanengwe, K., & Bijnens, L. Statistical detection of synergy: New methods and a comparative study. Pharmaceutical Statistics (2021)).
Synergy matrix results of the BIGL analysis of the cell line data with HSA as mean model calculated on the basis of the cellular metabolic activity using Cell Titer-Glo assay. Bootstrap confidence intervals are indicated. Effect sizes and their confidence intervals are shown. […] No significant average effect if zero is included in the interval.

[1] = Compound 51 0.01 μm + Decitabine 0.0015 μM
[2] = Compound 51 0.01 μm + Decitabine 0.035 μM
[3] = Compound 51 0.01 μm + Decitabine 0.15 μM
[4] = Compound 51 0.01 μm + Gilteritinib 0.0005 μM
[5] = Compound 51 0.05 μm + Decitabine 0.15 μM
[6] = Compound 51 0.05 μm + Decitabine 1.5 μM
[7] = Compound 51 0.05 μm + Gilteritinib 0.0005 μM

Structure (SMILES): CC(=O)N1CCC(CN2CC[C@@H](Cc3cn(-c4ccc(F)cc4C(=O)N(C)C(C)C)c4cncc(C)c34)C2)CC1 [Compound 51]
- Effect size (BIGL, HSA null model), MV4-11 Cell Proliferation (Compound 51 0.0001 μm + Midostaurin 0.0012 μM): −0.03
- Effect size (BIGL, HSA null model), MV4-11 Cell Proliferation (Compound 51 0.0001 μm + Midostaurin 0.006 μM): 0.13
- Effect size (BIGL, HSA null model), MV4-11 Cell Proliferation (Compound 51 0.0001 μm + Midostaurin 0.025 μM): 0.02
- Effect size (BIGL, HSA null model), MV4-11 Cell Proliferation (Compound 51 0.0001 μm + Midostaurin 0.05 μM): −0.05
- Effect size (BIGL, HSA null model), MV4-11 Cell Proliferation (Compound 51 0.0001 μm + Midostaurin 0.1 μM): −0.02
- Effect size (BIGL, HSA null model), MV4-11 Cell Proliferation (Compound 51 0.0001 μm + Midostaurin 0.5 μM): 0.03
- Effect size (BIGL, HSA null model), MV4-11 Cell Proliferation (Compound 51 0.001 μm + Decitabine 0.0015 μM): −0.01
- Effect size (BIGL, HSA null model), MV4-11 Cell Proliferation (Compound 51 0.001 μm + Decitabine 0.035 μM): −0.03
- Effect size (BIGL, HSA null model), MV4-11 Cell Proliferation (Compound 51 0.001 μm + Decitabine 0.15 μM): 0
- Effect size (BIGL, HSA null model), MV4-11 Cell Proliferation (Compound 51 0.001 μm + Decitabine 1.5 μM): −0.05
- Effect size (BIGL, HSA null model), MV4-11 Cell Proliferation (Compound 51 0.001 μm + Decitabine 3 μM): −0.04
- Effect size (BIGL, HSA null model), MV4-11 Cell Proliferation (Compound 51 0.001 μm + Gilteritinib 0.0005 μM): −0.03
- Effect size (BIGL, HSA null model), MV4-11 Cell Proliferation (Compound 51 0.001 μm + Gilteritinib 0.005 μM): −0.01
- Effect size (BIGL, HSA null model), MV4-11 Cell Proliferation (Compound 51 0.001 μm + Gilteritinib 0.01 μM): −0.03
- Effect size (BIGL, HSA null model), MV4-11 Cell Proliferation (Compound 51 0.001 μm + Gilteritinib 0.05 μM): −0.01
- Effect size (BIGL, HSA null model), MV4-11 Cell Proliferation (Compound 51 0.001 μm + Gilteritinib 0.3 μM): −0.01
- Effect size (BIGL, HSA null model), MV4-11 Cell Proliferation (Compound 51 0.001 μm + Gilteritinib 1 μM): −0.01
- Effect size (BIGL, HSA null model), MV4-11 Cell Proliferation (Compound 51 0.001 μm + Midostaurin 0.0012 μM): −0.02
- Effect size (BIGL, HSA null model), MV4-11 Cell Proliferation (Compound 51 0.001 μm + Midostaurin 0.006 μM): −0.01
- Effect size (BIGL, HSA null model), MV4-11 Cell Proliferation (Compound 51 0.001 μm + Midostaurin 0.025 μM): 0.05
- Effect size (BIGL, HSA null model), MV4-11 Cell Proliferation (Compound 51 0.001 μm + Midostaurin 0.05 μM): 0.07
- Effect size (BIGL, HSA null model), MV4-11 Cell Proliferation (Compound 51 0.001 μm + Midostaurin 0.1 μM): −0.03
- Effect size (BIGL, HSA null model), MV4-11 Cell Proliferation (Compound 51 0.001 μm + Midostaurin 0.5 μM): 0.03
- Effect size (BIGL, HSA null model), MV4-11 Cell Proliferation [1]: −0.1
- Synergy/antagonism call (maxR test), MV4-11 Cell Proliferation [1]: **
- Effect size (BIGL, HSA null model), MV4-11 Cell Proliferation [2]: −0.11
- Synergy/antagonism call (maxR test), MV4-11 Cell Proliferation [2]: **
- Effect size (BIGL, HSA null model), MV4-11 Cell Proliferation [3]: −0.23
- Synergy/antagonism call (maxR test), MV4-11 Cell Proliferation [3]: **
- Effect size (BIGL, HSA null model), MV4-11 Cell Proliferation (Compound 51 0.01 μm + Decitabine 1.5 μM): 0.01
- Effect size (BIGL, HSA null model), MV4-11 Cell Proliferation (Compound 51 0.01 μm + Decitabine 3 μM): −0.05
- Effect size (BIGL, HSA null model), MV4-11 Cell Proliferation [4]: −0.36
- Synergy/antagonism call (maxR test), MV4-11 Cell Proliferation [4]: **
- Effect size (BIGL, HSA null model), MV4-11 Cell Proliferation (Compound 51 0.01 μm + Gilteritinib 0.005 μM): −0.02
- Effect size (BIGL, HSA null model), MV4-11 Cell Proliferation (Compound 51 0.01 μm + Gilteritinib 0.01 μM): −0.02
- Effect size (BIGL, HSA null model), MV4-11 Cell Proliferation (Compound 51 0.01 μm + Gilteritinib 0.05 μM): −0.02
- Effect size (BIGL, HSA null model), MV4-11 Cell Proliferation (Compound 51 0.01 μm + Gilteritinib 0.3 μM): −0.02
- Effect size (BIGL, HSA null model), MV4-11 Cell Proliferation (Compound 51 0.01 μm + Gilteritinib 1 μM): −0.02
- Effect size (BIGL, HSA null model), MV4-11 Cell Proliferation (Compound 51 0.01 μm + Midostaurin 0.0012 μM): −0.06
- Effect size (BIGL, HSA null model), MV4-11 Cell Proliferation (Compound 51 0.01 μm + Midostaurin 0.006 μM): −0.13
- Effect size (BIGL, HSA null model), MV4-11 Cell Proliferation (Compound 51 0.01 μm + Midostaurin 0.025 μM): −0.14
- Effect size (BIGL, HSA null model), MV4-11 Cell Proliferation (Compound 51 0.01 μm + Midostaurin 0.05 μM): −0.11
- Effect size (BIGL, HSA null model), MV4-11 Cell Proliferation (Compound 51 0.01 μm + Midostaurin 0.1 μM): −0.04
- Effect size (BIGL, HSA null model), MV4-11 Cell Proliferation (Compound 51 0.01 μm + Midostaurin 0.5 μM): 0.03
- Effect size (BIGL, HSA null model), MV4-11 Cell Proliferation (Compound 51 0.05 μm + Decitabine 0.0015 μM): 0.02
- Effect size (BIGL, HSA null model), MV4-11 Cell Proliferation (Compound 51 0.05 μm + Decitabine 0.035 μM): −0.07
- Effect size (BIGL, HSA null model), MV4-11 Cell Proliferation [5]: −0.23
- Synergy/antagonism call (maxR test), MV4-11 Cell Proliferation [5]: **
- Effect size (BIGL, HSA null model), MV4-11 Cell Proliferation [6]: −0.11
- Synergy/antagonism call (maxR test), MV4-11 Cell Proliferation [6]: **
- Effect size (BIGL, HSA null model), MV4-11 Cell Proliferation (Compound 51 0.05 μm + Decitabine 3 μM): −0.06
- Effect size (BIGL, HSA null model), MV4-11 Cell Proliferation [7]: −0.18
- Synergy/antagonism call (maxR test), MV4-11 Cell Proliferation [7]: **
- Effect size (BIGL, HSA null model), MV4-11 Cell Proliferation (Compound 51 0.05 μm + Gilteritinib 0.005 μM): −0.03
- Effect size (BIGL, HSA null model), MV4-11 Cell Proliferation (Compound 51 0.05 μm + Gilteritinib 0.01 μM): −0.02
- Effect size (BIGL, HSA null model), MV4-11 Cell Proliferation (Compound 51 0.05 μm + Gilteritinib 0.05 μM): −0.02
